The structures appear in SMILES notation.

As a reminder, the inhibition is the share of the control response that was lost under treatment. Low readings indicate little suppression, high ones strong suppression.

Series [1] concerns the target T1, cytochrome P450 3A4 isoform (Homo sapiens, UniProt P08684).
T1 construct: pre-incubated with human liver microsomes and NADPH; from tissue; host or cells: human liver microsomes
As to the kind of experiment: Cytochrome P450 inhibition assay (midazolam hydroxylation). The series is classed as in vitro ADME. The note with it: 10 μM test compound, midazolam at approximately its Km, human liver microsomes. Put shortly:
(§1)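 Percent inhibition of midazolam 1′-hydroxylation by 10 μM compound was measured, midazolam dosed at about Km. Time-dependent inhibition was probed by a 30 min preincubation of compound with human liver microsomes and NADPH ahead of substrate, compared against samples without preincubation.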
(Microsomes from liver hold many membrane-bound enzymes, among them those of drug oxidation.)

Another series deals with T2, OX1 (Homo sapiens, UniProt O43613).
T2 construct: expressed in transfected cells; host or cells: CHO (CHO-OX1, kept under selection antibiotic)
T2 sequence (O43613 1-425): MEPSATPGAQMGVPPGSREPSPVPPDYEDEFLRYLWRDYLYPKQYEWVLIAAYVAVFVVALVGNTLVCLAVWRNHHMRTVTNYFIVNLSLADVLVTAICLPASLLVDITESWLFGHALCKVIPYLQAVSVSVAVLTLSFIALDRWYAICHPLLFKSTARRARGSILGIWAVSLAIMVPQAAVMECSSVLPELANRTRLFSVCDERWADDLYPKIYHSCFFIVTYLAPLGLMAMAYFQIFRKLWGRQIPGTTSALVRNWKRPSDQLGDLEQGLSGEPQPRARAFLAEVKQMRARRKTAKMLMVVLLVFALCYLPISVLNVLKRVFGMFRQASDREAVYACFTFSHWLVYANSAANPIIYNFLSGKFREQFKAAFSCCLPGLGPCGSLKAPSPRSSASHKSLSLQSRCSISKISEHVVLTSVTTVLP
As to the kind of experiment: Orexin receptor cell-based functional assay, [Ca2+]i by FLIPR, CHO-OX1 cells. As to conditions: CHO-OX1 cells, [Ca2+]i by FLIPR, antagonist dose-range 0.1 nM-10 μM, EC90 of OXA; read-out: OX1. Put shortly:
(§2)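 Antagonist mode FLIPR calcium read in CHO-OX1 and CHO-OX2 lines. Test compounds, dosed 0.1 nM-10 μM, preincubated 30 min after 37° C dye loading with 2.5 mM probenecid (calcium4 for 30 min or calcium6 for 2 h).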

The target in another series is T3, OX2 (Homo sapiens, UniProt O43614).
T3 construct: expressed in transfected cells; host or cells: CHO (CHO-OX2, kept under selection antibiotic)
T3 sequence (O43614 1-444): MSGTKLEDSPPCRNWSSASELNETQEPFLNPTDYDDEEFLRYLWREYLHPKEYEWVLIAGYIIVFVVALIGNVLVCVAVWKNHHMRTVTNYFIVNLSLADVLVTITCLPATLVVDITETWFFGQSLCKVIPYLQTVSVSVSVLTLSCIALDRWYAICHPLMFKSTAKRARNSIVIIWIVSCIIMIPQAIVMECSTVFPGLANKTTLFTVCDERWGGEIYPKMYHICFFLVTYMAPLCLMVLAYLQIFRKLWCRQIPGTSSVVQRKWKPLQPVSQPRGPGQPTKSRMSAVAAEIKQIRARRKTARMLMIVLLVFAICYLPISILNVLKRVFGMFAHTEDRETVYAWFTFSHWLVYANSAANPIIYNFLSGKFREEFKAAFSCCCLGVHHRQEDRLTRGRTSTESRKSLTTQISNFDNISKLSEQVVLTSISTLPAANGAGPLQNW
As to the kind of experiment: Orexin receptor cell-based functional assay, [Ca2+]i by FLIPR, CHO-OX2 cells. The note with it: [Ca2+]i by FLIPR, antagonist dose-range 0.1 nM-10 μM, EC90 of OXA, read-out: OX2. Put shortly:
as §2

The next series has as its target T4, CYP3A4 (Homo sapiens, UniProt P08684).
T4 construct: pre-incubated with human liver microsomes and NADPH; from tissue; host or cells: human liver microsomes
In words: Cytochrome P450 inhibition assay (midazolam hydroxylation). The series is classed as in vitro ADME. As to conditions: human, human liver microsomes, probe midazolam (hydroxylation to 1′-hydroxymidazolam), 10 μM test compound, midazolam at approximately its Km. Put shortly: as §1

T1 sequence (P08684 whole entry, canonical isoform): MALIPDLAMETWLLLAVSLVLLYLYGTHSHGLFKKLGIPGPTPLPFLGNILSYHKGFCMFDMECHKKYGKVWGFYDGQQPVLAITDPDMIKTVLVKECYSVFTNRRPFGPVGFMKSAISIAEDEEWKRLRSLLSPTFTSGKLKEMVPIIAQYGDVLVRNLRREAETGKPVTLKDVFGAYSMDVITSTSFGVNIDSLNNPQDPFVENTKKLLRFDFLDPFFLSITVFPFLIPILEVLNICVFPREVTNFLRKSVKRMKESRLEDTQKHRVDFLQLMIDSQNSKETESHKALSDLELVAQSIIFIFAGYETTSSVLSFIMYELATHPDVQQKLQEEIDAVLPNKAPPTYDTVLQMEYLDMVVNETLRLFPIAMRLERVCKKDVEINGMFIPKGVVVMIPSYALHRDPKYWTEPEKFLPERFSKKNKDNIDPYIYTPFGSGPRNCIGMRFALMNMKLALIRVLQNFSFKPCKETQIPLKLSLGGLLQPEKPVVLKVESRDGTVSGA
T4 sequence (P08684 whole entry): as the sequence (P08684 whole entry, canonical isoform) above

As to `Cc1ccc(-n2nccn2)c(C(=O)N2CCC[C@@H](C)[C@H]2CNc2ncc(Cl)cc2F)c1` [Example A92, ((2S,3R)-2-(((5-Chloro-3-fluoropyridin-2-yl)amino)methyl)-3-methylpiperidin-1-yl)(5-methyl-2-(2H-1,2,3-triazol-2-yl)phenyl)methanone], the “% CYP3A4 Inhibition” value in series [1] (10 µM) is listed as 91%.

For the compound `Cc1nc(C(=O)N2CCC[C@@H](C)[C@H]2CNc2nc3cc(Cl)ccc3o2)c(-c2ccc(F)cc2)s1` [Example A84, ((2S,3R)-2-(((5-Chlorobenzo[d]oxazol-2-yl)amino)methyl)-3-methylpiperidin-1-yl)(5-(4-fluorophenyl)-2-methylthiazol-4-yl)methanone], the “% CYP3A4 Inhibition” value in series [1] (10 µM) amounted to 50%.

In the case of `C[C@@H]1CCCN(C(=O)c2cc(F)c(F)cc2-c2ncccn2)[C@@H]1CNc1ccc(C(F)(F)F)cn1` [Example A242, (4,5-Difluoro-2-(pyrimidin-2-yl)phenyl)((2S,3R)-3-methyl-2-(((5-(trifluoromethyl)pyridin-2-yl)amino)methyl)piperidin-1-yl)methanone], the IC50 on OX1 was 24 nM. For the same compound, the “% CYP3A4 Inhibition” value in series [1] was determined as 87%.

In the case of `Cc1ccc(-n2nccn2)c(C(=O)N2CCC[C@@H](C)[C@H]2CNc2ccc(C#N)cn2)c1` [Example A46, 6-((((2S,3R)-3-Methyl-1-(5-methyl-2-(2H-1,2,3-triazol-2-yl)benzoyl)piperidin-2-yl)methyl)amino)nicotinonitrile], the IC50 on OX1 was 5 nM. Further, the “% CYP3A4 Inhibition” value in series [1] (10 µM) stood at 53%.

For the compound `C[C@@H]1CCCN(C(=O)c2c(F)ccc(F)c2-n2nccn2)[C@@H]1CNc1ccc(C(F)(F)F)cn1` [Example A332, (3,6-Difluoro-2-(2H-1,2,3-triazol-2-yl)phenyl)((2S,3R)-3-methyl-2-(((5-(trifluoromethyl)pyridin-2-yl)amino)methyl)piperidin-1-yl)methanone], the IC50 was 2 nM at OX1 and over 5000 nM at OX2. The compound also gave an inhibition at 10 µM against CYP3A4 of 62%.

As for `Cc1cc(F)c(-c2ncccn2)c(C(=O)N2CCC[C@@H](C)[C@H]2CNc2ncc(C(F)(F)F)cn2)c1` [Example A375, (3-fluoro-5-methyl-2-(pyrimidin-2-yl)phenyl)((2S,3R)-3-methyl-2-(((5-(trifluoromethyl)pyrimidin-2-yl)amino)methyl)piperidin-1-yl)methanone], the IC50 was 8 nM on OX1 and 170 nM on OX2. For the same compound, on CYP3A4, 10 µM produced 48% inhibition.

`C[C@@H]1CCCN(C(=O)c2cccc(F)c2-c2ncccn2)[C@@H]1CNc1ncc(C(F)(F)F)cn1` [Example A230, (3-Fluoro-2-(pyrimidin-2-yl)phenyl)((2S,3R)-3-methyl-2-(((5-(trifluoromethyl)pyrimidin-2-yl)amino)methyl)piperidin-1-yl)methanone]: on OX1, the IC50 is 5 nM. The “% CYP3A4 Inhibition” value in series [1] is 50%.

As for `C[C@@H]1CCCN(C(=O)c2ccc(F)c(F)c2-n2nccn2)[C@@H]1CNc1ncc(C(F)(F)F)cn1` [Example A325, (3,4-difluoro-2-(2H-1,2,3-triazol-2-yl)phenyl)((2S,3R)-3-methyl-2-(((5-(trifluoromethyl)pyrimidin-2-yl)amino)methyl)piperidin-1-yl)methanone], the IC50 was found to be 2 nM at OX1 and 4100 nM at OX2. On CYP3A4, this compound showed an inhibition at 10 µM of 80%.

Turning to `Cc1c(F)ccc(C(=O)N2CCC[C@@H](C)[C@H]2CNc2ncc(C(F)(F)F)cn2)c1-n1nccn1` [Example A345, (4-fluoro-3-methyl-2-(2H-1,2,3-triazol-2-yl)phenyl)((2S,3R)-3-methyl-2-(((5-(trifluoromethyl)pyrimidin-2-yl)amino)methyl)piperidin-1-yl)methanone], the IC50 was 1 nM at OX1 and over 5000 nM on OX2. In addition, testing at 10 µM at CYP3A4 gave an inhibition of 60%.

As for `C[C@@H]1CCCN(C(=O)c2cccc(F)c2-c2ncccn2)[C@@H]1CNc1ccc(Cl)cn1` [Example A232, ((2S,3R)-2-(((5-chloropyridin-2-yl)amino)methyl)-3-methylpiperidin-1-yl)(3-fluoro-2-(pyrimidin-2-yl)phenyl)methanone], the IC50 at OX1 was 8 nM. Also, in series [1], the “% CYP3A4 Inhibition” value was 65%.

Turning to `Cc1cc(F)cc(C(=O)N2CCC[C@@H](C)[C@H]2CNc2ccc(C(F)(F)F)cn2)c1-n1nccn1` [Example A348, (5-fluoro-3-methyl-2-(2H-1,2,3-triazol-2-yl)phenyl)((2S,3R)-3-methyl-2-(((5-(trifluoromethyl)pyridin-2-yl)amino)methyl)piperidin-1-yl)methanone], the IC50 at OX1 was 2 nM; at OX2 it was over 4000 nM. Further, 10 µM produced 77% inhibition against CYP3A4.

In the case of `Cc1ccc(-n2nccn2)c(C(=O)N2CCC[C@@H](C)[C@H]2CNc2ncc(F)cc2F)c1` [Example A91, ((2S,3R)-2-(((3,5-Difluoropyridin-2-yl)amino)methyl)-3-methylpiperidin-1-yl)(5-methyl-2-(2H-1,2,3-triazol-2-yl)phenyl)methanone], the “% CYP3A4 Inhibition” value in series [1] (10 µM) was 58%.

As to `Cc1ccc(C(=O)N2CCC[C@@H](C)[C@H]2CNc2ncc(C(F)(F)F)cn2)c(-n2nccn2)c1F` [Example A357, (3-fluoro-4-methyl-2-(2H-1,2,3-triazol-2-yl)phenyl)((2S,3R)-3-methyl-2-(((5-(trifluoromethyl)pyrimidin-2-yl)amino)methyl)piperidin-1-yl)methanone], the values for the IC50 on OX1 and on OX2 were 5 nM and over 5000 nM, respectively. Moreover, at 10 µM the inhibition against CYP3A4 was 83%.

`Cc1ccc(-n2nccn2)c(C(=O)N2CCC[C@@H](C)[C@H]2CNc2ncc(Cl)cc2F)n1` [Example A192, ((2S,3R)-2-(((5-Chloro-3-fluoropyridin-2-yl)amino)methyl)-3-methylpiperidin-1-yl)(6-methyl-3-(2H-1,2,3-triazol-2-yl)pyridin-2-yl)methanone]: the IC50 is 10 nM at OX1 and over 5000 nM on OX2. The inhibition at 10 µM against CYP3A4 was found to be 51%.

Consider `Cc1cc(F)c(-n2nccn2)c(C(=O)N2CCC[C@@H](C)[C@H]2CNc2ncc(C(F)(F)F)cn2)c1` [Example A373, (3-fluoro-5-methyl-2-(2H-1,2,3-triazol-2-yl)phenyl)((2S,3R)-3-methyl-2-(((5-(trifluoromethyl)pyrimidin-2-yl)amino)methyl)piperidin-1-yl)methanone], for which the IC50 at OX1 was 1 nM; at OX2, 1900 nM. 10 µM produced 60% inhibition on CYP3A4.

As to `Cc1nc(C(=O)N2CCC[C@@H](C)[C@H]2CNc2nc3cc(Cl)ccc3o2)c(-c2ccc(F)cc2)s1` [Example A13, ((2S,3R)-2-(((5-Chlorobenzo[d]oxazol-2-yl)amino)methyl)-3-methylpiperidin-1-yl)(5-(4-fluorophenyl)-2-methylthiazol-4-yl)methanone], in series [1] (10 µM), the “% CYP3A4 Inhibition” value was found to be 83%.

In the case of `Cc1c(F)ccc(C(=O)N2CCC[C@@H](C)[C@H]2CNc2ncc(C(F)(F)F)cn2)c1-c1ncccn1` [Example A347, (4-fluoro-3-methyl-2-(pyrimidin-2-yl)phenyl)((2S,3R)-3-methyl-2-(((5-(trifluoromethyl)pyrimidin-2-yl)amino)methyl)piperidin-1-yl)methanone], the IC50 was 2 nM at OX1 and over 5000 nM at OX2. The compound further had an inhibition at 10 µM against CYP3A4 of 35%.

The values are drawn from patent publication US9440982B2 (Eolas Therapeutics, Inc., priority 2012, dated 2016).
